Data taken from US11878053B2, “Vaccine compositions comprising tryptophan 2,3-dioxygenase or fragments thereof” (IO Biotech ApS, priority 2014, dated 2024).

Key:
[1] = test system: peripheral blood mononuclear cells (PBMC); experiment: IFNγ ELISPOT assay with HLA-A2 restricted TDO peptides; assay type: cell-based, human; conditions: for TDO responses shown by ELISPOT vs control peptide, DFR method: 3*10^5 cells/well, control peptide HIVpol463-476, examples; for IFNγ producing T-cell in response to the peptide: PBMC from six cancer patients, after one round of in vitro stimulation; for ex vivo IFNγ ELISPOT response: directly ex vivo, PBMC from different cancer patients, 9*10^5 cells/well
HLA-A2 = biological target: T1, HLA-A2 (Homo sapiens, UniProt P04439, D140Y/D185E/D98H/E176V/E277Q/G131W/G231S/I119V/I121R/I166T/I218V/N151K/N90K/P208A/P217A/Q86G/Q94H/R138H/R169H); conditions: positive control peptides, well described; cited from earlier work
T1 construct: made in house; host or cells: E. coli

[2] = test system: TDO-specific CD8+ T cells; experiment: Tetramer staining (flow cytometry) of TDO-specific CD8+ T cells; assay type: cell-based, human; conditions: PBMC from a cancer patient repeatedly stimulated with autologous DC loaded with the peptide (5- or 4-times)
Method: DC were generated by adherence of PBMCs to the plastic surface of a well for one hour in RPMI 1640 (Gibco) before removal of non-adherent cells. The adherent cells were treated with 1000 U/ml GM-CSF (PeproTech, London, UK) and 250 U/ml IL-4 (Peprotech) in X-vivo (Lonza, Copenhagen, Denmark) supplied with 5% human AB serum (Sigma-Aldrich) and placed in a 37° C., 5% CO2 and humidified environment. On day six, maturation cocktail consisting of 1000 U/ml of each TNFα, IL-1P and IL-6 and 1 μg/ml PGE2 (Peprotech) was added to the cells. On day eight, mature DCs were harvested, loaded with 100 μM TDO peptide in X-vivo 15 (Lonza) for four hours in the incubator. After washing, peptide-loaded DCs were mixed with autologous PBLs in X-vivo 15 (Lonza) supplied with 5% human AB serum (Sigma-Aldrich). […] Cultures were stimulated this way twice seven days apart. Further stimulations were performed using autologous, irradiated (25Gy) PBLs loaded with 100 μM TDO peptide. The day after stimulation with PBLs the cultures were supplied with IL-2 (Proleukin; Novartis, Copenhagen, Denmark) to a final concentration of 40 U/ml. Peptide loaded MHC tetramers were […] with 2.5 μl of each phycoerytrhin (PE). […] The stainings were performed in 50 μl PBS (Lonza) supplied with 2% FCS (Gibco) for 15 minutes in the incubator. […]

T2 cells = experiment: 51Cr-release cytotoxicity assay, peptide-pulsed T2 cells; assay type: cell-based; conditions: short peptides added immediately before the assay, long peptides loaded overnight
Method: Assessment of the cytotoxic capability of the generated T-cell lines was evaluated using a conventional chromium release assay as described. Briefly, target tumor cell lines were labeled with 100 μCi ^51Cr (Perkin Elmer, Skovlunde, Denmark) in 100 μl RPMI 1640 (Gibco) supplied with 10% FCS (Gibco) for one hour at 37° C. After washing of target cells, they were incubated with effector cells at different effector:target (E:T) ratios for four hours in the incubator. Subsequently, the amount of radioactivity in the supernatant was measured using a gamma cell counter (Perkin Elmer Wallac Wizard 1470 Automatic gamma counter).

CD4+ T cells in PBMC = experiment: Cytokine ELISPOT (IFNγ, TNFα, IL-10, IL-17A) with long TDO peptides; assay type: cell-based, human; conditions: for Peptide-specific CD4 T-cell responses: ELISPOT, cancer patients and healthy donors; for IFNγ producing CD4+ T cells, cancer patients vs healthy donors: IFNγ ELISPOT; for IL-10 production in response to peptide stimulation: IL-10 ELISPOT; for IL-17 production in response to peptide stimulation: IL-17 ELISPOT; for cells producing TNFα in response to peptide, cancer patients vs healthy donors: TNFα ELISPOT

| Sequence | TDO responses shown by ELISPOT vs control peptide, DFR method [1] | IFNγ producing T-cell in response to the peptide [1] | affinity towards HLA-A2 (HLA-A2) | frequency of TDO-specific CD8+ T cells by two color tetramer staining [2] | ex vivo IFNγ ELISPOT response [1] | lysis of T2 cells pulsed with the peptide by TDO123-132 specific cells (T2 cells) | Peptide-specific CD4 T-cell responses (CD4+ T cells in PBMC) | IFNγ producing CD4+ T cells, cancer patients vs healthy donors (CD4+ T cells in PBMC) | IL-10 production in response to peptide stimulation (CD4+ T cells in PBMC) | IL-17 production in response to peptide stimulation (CD4+ T cells in PBMC) | cells producing TNFα in response to peptide, cancer patients vs healthy donors (CD4+ T cells in PBMC) |
| --- | --- | --- | --- | --- | --- | --- | --- | --- | --- | --- | --- |
| DLFNLSTYL (Peptide fragment of human TDO) [TDO364-372, Polypeptide fragment of human TDO] | statistically significant | presence of IFNγ producing T-cell | – | – | – | – | – | – | – | – | – |
| ILKEPVHGV [HIVpol468-476] | – | – | high affinity | – | – | – | – | – | – | – | – |
| KLLVQQFSIL (Peptide fragment of human TDO) [TDO123-132, Polypeptide fragment of human TDO] | statistically significant | presence of IFNγ producing T-cell | – | dramatically increased | detectable directly ex vivo | lysed | – | – | – | – | – |
| QLLTSLMDI (Peptide fragment of human TDO) [TDO309-317, Polypeptide fragment of human TDO] | statistically significant | presence of IFNγ producing T-cell | – | dramatically increased | detectable directly ex vivo | not | – | – | – | – | – |
| RFQVPFQLLTSLMDIDSLMT (Peptide fragment of human TDO) [TDO303-322, long (20 amino acids) peptide comprising TDO309-317] | – | – | – | – | – | not | present in both cancer patients and healthy donors | no difference | restricted to cancer patients | restricted to cancer patients | more frequent in healthy donors |
| TLLELVEAWL (Peptide fragment of human TDO) [TDO200-208, Polypeptide fragment of human TDO] | statistically significant | presence of IFNγ producing T-cell | – | – | detectable directly ex vivo | – | – | – | – | – | – |
| VSVILKLLVQQFSILETMTA (Peptide fragment of human TDO) [TDO118-137, long (20 amino acids) peptide comprising TDO123-132] | – | – | – | – | – | lysed | present in both cancer patients and healthy donors | no difference | restricted to cancer patients | restricted to cancer patients | more frequent in healthy donors |
